Results reported in PubChem BioAssay (NCI).
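Tested at 5 concentrations; 48 h exposure; 96-well plates; endpoints linearly interpolated, else capped at highest concentration. At the GI50, growth is halved. TGI marks complete inhibition of growth.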

Assays:
Assay in all cases: growth of human tumour cells (NCI), 48 h
[1] = tested on: COLO 205 colon
[2] = tested on: SNB-75 CNS
[3] = tested on: OVCAR-8 ovarian
[4] = tested on: OVCAR-4 ovarian
[5] = tested on: HOP-92 NSCLC
[6] = tested on: HT29 colon
[7] = tested on: MALME-3M melanoma
[8] = tested on: K-562 leukemia
[9] = tested on: U251 CNS
[10] = tested on: PC-3 prostate
[11] = tested on: RXF 393 renal
[12] = tested on: SK-MEL-28 melanoma
[13] = tested on: NCI-H460 lung
[14] = tested on: NCI/ADR-RES ovarian
[15] = tested on: CAKI-1 renal
[16] = tested on: SNB-19 CNS
[17] = tested on: BT-549 breast
[18] = tested on: SN12C renal
[19] = tested on: MCF7 breast
[20] = tested on: NCI-H226 lung
[21] = tested on: TK-10 renal
[22] = tested on: EKVX NSCLC
[23] = tested on: A549 NSCLC
[24] = tested on: SK-MEL-5 melanoma
[25] = tested on: RPMI-8226 leukemia
[26] = tested on: MDA-MB-435
[27] = tested on: UACC-62 melanoma
[28] = tested on: SK-MEL-2 melanoma
[29] = tested on: ACHN renal
[30] = tested on: CCRF-CEM leukemia
[31] = tested on: SK-OV-3 ovarian
[32] = tested on: M14 melanoma
[33] = tested on: HOP-62 NSCLC
[34] = tested on: SF-295 CNS
[35] = tested on: SW-620 colon
[36] = tested on: UO-31 renal
[37] = tested on: IGROV1 ovarian
[38] = tested on: HL-60(TB) leukemia
[39] = tested on: SF-268 CNS
[40] = tested on: 786-0 renal
[41] = tested on: SF-539 CNS
[42] = tested on: OVCAR-5 ovarian
[43] = tested on: A498 renal
[44] = tested on: LOX IMVI melanoma
[45] = tested on: SR leukemia
[46] = tested on: HS 578T breast
[47] = tested on: T-47D breast
[48] = tested on: DU-145 prostate
[49] = tested on: HCT-116 colon
[50] = tested on: NCI-H522 lung
[51] = tested on: KM12 colon
[52] = tested on: HCC-2998 colon
[53] = tested on: OVCAR-3 ovarian
[54] = tested on: HCT-15 colon
[55] = tested on: MDA-MB-231 breast
[56] = tested on: NCI-H23 lung
[57] = tested on: UACC-257 melanoma

CCNCCNc1cc(C2CCCC2)c(C#N)c2nc3ccccc3n12
GI50 [1]: 2 µM
TGI [1]: 4.71 µM
GI50 [2]: 1.63 µM
TGI [2]: 4.02 µM
GI50 [3]: 3.52 µM
TGI [3]: 10.6 µM
GI50 [4]: 3.22 µM
TGI [4]: 13 µM
GI50 [5]: 2.08 µM
TGI [5]: 4.4 µM
GI50 [6]: 2.37 µM
TGI [6]: 5.98 µM
GI50 [7]: 1.73 µM
TGI [7]: 3.45 µM
GI50 [8]: 2.49 µM
TGI [8]: 5.81 µM
GI50 [9]: 2.21 µM
TGI [9]: 4.27 µM
GI50 [10]: 6.1 µM
TGI [10]: 19.3 µM
GI50 [11]: 1.81 µM
TGI [11]: 4 µM
GI50 [12]: 1.84 µM
TGI [12]: 3.68 µM
GI50 [13]: 2.75 µM
TGI [13]: 7.19 µM
GI50 [14]: 4.55 µM
TGI [14]: 19 µM
GI50 [15]: 3.59 µM
TGI [15]: 14.5 µM
GI50 [16]: 6.26 µM
TGI [16]: 21.1 µM
GI50 [17]: 2.45 µM
TGI [17]: 5.84 µM
GI50 [18]: 3.61 µM
TGI [18]: 12.9 µM
GI50 [19]: 2.58 µM
TGI [19]: 13.7 µM
GI50 [20]: 3.49 µM
TGI [20]: 17.5 µM
GI50 [21]: 1.84 µM
TGI [21]: 5.14 µM
GI50 [22]: 4.73 µM
TGI [22]: 21.5 µM
GI50 [23]: 3.59 µM
TGI [23]: 8.22 µM
GI50 [24]: 1.75 µM
TGI [24]: 3.31 µM
GI50 [25]: 2.69 µM
TGI [25]: 7.35 µM
GI50 [26]: 2.62 µM
TGI [26]: 7.62 µM
GI50 [27]: 1.92 µM
TGI [27]: 3.76 µM
GI50 [28]: 3.91 µM
TGI [28]: 16.1 µM
GI50 [29]: 1.91 µM
TGI [29]: 4 µM
GI50 [30]: 2.46 µM
TGI [30]: 7.75 µM
GI50 [31]: 3.26 µM
TGI [31]: 12.5 µM
GI50 [32]: 2.06 µM
TGI [32]: 4.08 µM
GI50 [33]: 3.72 µM
TGI [33]: 14.9 µM
GI50 [34]: 1.7 µM
TGI [34]: 3.46 µM
GI50 [35]: 2.82 µM
TGI [35]: 13.2 µM
GI50 [36]: 1.67 µM
TGI [36]: 3.18 µM
GI50 [37]: 3.5 µM
TGI [37]: 16 µM
GI50 [38]: 2.01 µM
TGI [38]: 4.3 µM
GI50 [39]: 3.28 µM
TGI [39]: 14 µM
GI50 [40]: 2.69 µM
TGI [40]: 9.79 µM
GI50 [41]: 1.67 µM
TGI [41]: 3.25 µM
GI50 [42]: 5.13 µM
TGI [42]: 19.9 µM
GI50 [43]: 2.67 µM
TGI [43]: 8.32 µM
GI50 [44]: 1.76 µM
TGI [44]: 3.3 µM
GI50 [45]: 1.66 µM
TGI [45]: 6.13 µM
GI50 [46]: 3.23 µM
TGI [46]: 10.4 µM
GI50 [47]: 2.58 µM
TGI [47]: 7.14 µM
GI50 [48]: 3.71 µM
TGI [48]: 13.8 µM
GI50 [49]: 1.95 µM
TGI [49]: 3.89 µM
GI50 [50]: 2.26 µM
TGI [50]: 5.33 µM
GI50 [51]: 4.64 µM
TGI [51]: 16.6 µM
GI50 [52]: 3.48 µM
TGI [52]: 15.3 µM
GI50 [53]: 1.7 µM
TGI [53]: 3.18 µM
GI50 [54]: 3.07 µM
TGI [54]: 12.9 µM
GI50 [55]: 2.37 µM
TGI [55]: 5.27 µM
GI50 [56]: 7.42 µM
TGI [56]: 24.3 µM
GI50 [57]: 2.58 µM
TGI [57]: 4.74 µM
